Earlier results in patent publication US11957727B2, “Prevention of neuroinflammation associated memory loss using nutraceutical compositions” (priority 2020, dated 2024).
Like-named read-outs stand apart in the source and are kept apart here.

Assays:
[1] = system: ulcerative colitis (UC); details: 50 and 100 mg/kg/day
[2] = system: myocardial ischemia and reperfusion; details: 10 mg/kg intravenously then 10 mg/kg/h infusion, rats
[3] = system: sepsis induction with live Escherichia coli / endotoxin (LPS 0111:B4); details: for concentration of IL-la: controls 1187.0±278.64 pg/ml
[4] = system: nitric oxide; details: lipopolysaccharide-induced
[5] = system: Nrf2 (+/+) primary peritoneal macrophages
[6] = system: LPS-induced ARDS
[7] = system: human umbilical vein VECs (HUVECs)
[8] = animal studies
[9] = system: endothelium of atherosclerotic plaque; details: PT injection, apoE(−/−) mice
[10] = 50 mg/kg, LPS 5 mg/kg 3 days later

Compound: Epigallocatechin-3-gallate [EGCG]
- release of IL-6 and IL-17 [1]: reduce
- myocardial damage and myeloperoxidase activity [2]: reduced
- plasma IL-6 and creatine phosphokinase levels [2]: decreased

Compound: CC1=CC(=O)C(C(C)C)=CC1=O [thymoquinone]
- concentration of IL-la ([3]; 0.75 mg/kg thymoquinone dose): 310.8 ± 70.93 pg/mL
- IL-10 levels ([3]; 0.75 mg/kg thymoquinone, controls 5505.2±333.96 pg/ml): 2885.0 ± 553.98 pg/mL
- concentration of IL-la ([3]; 1 mg/kg group): 428.3 ± 71.32 pg/mL
- levels of TNF-α and IL-2 ([3]; P values=0.1817 and 0.0851): relatively lower levels
- reduction of mortality ([3]; mice, thymoquinone before LPS or live E. coli challenge): 80-90%
- concentration of nitric oxide [4]: reduced significantly

Compound: C[S+]([O-])CCCCN=C=S (stereo not shown) [sulforaphane, 1-isothiocyanato-4-(methylsulfinyl)-butane]
- HO-1 expression ([5]; LPS-stimulated Nrf2 (+/+) macrophages): significantly augmented
- LPS-stimulated mRNA expression, protein expression and production of TNF-alpha, IL-1beta, COX-2 and iNOS ([5]; pretreatment, Nrf2 (+/+) macrophages): potently inhibited
- lactate dehydrogenase (LDH) activity [6, 10]: significantly decreased
- wet-to-dry ratio of the lungs [6, 10]: significantly decreased
- serum levels of interleukin-6 (IL-6) and tumor necrosis factor-α (TNF-α) ([6]; 50 mg/kg, LPS 5 mg/kg 3 days later, ELISA): significantly decreased
- prostaglandin E2 (PGE2) production ([6]; mice with LPS-induced ALI): significantly inhibited

Compound: trans-3,5-dimethoxy-4-hydroxystilbene [pterostilbene]
- protection against oxLDL-induced cell shrinkage, chromatin condensation, nuclear fragmentation and apoptosis ([7]; HUVECs, oxLDL 200 μg/ml): protected against such injuries
- expression of lectin-like oxLDL receptor-1 (LOX-1) ([7]; in vitro and in vivo): inhibited
- bioavailability [8]: 80%
- number of TUNEL-positive cells [9]: strongly decreased
